We go through one compound from US6878698B2, “Anti-inflammatory androstane derivatives” (Glaxo Group Limited, priority 2001, dated 2005).

What all share (assay type): cell-based
The target of assay [1] is T1, glucocorticoid receptor (GR) (Homo sapiens, UniProt P04150). Put plainly: Transrepression (NFκB): firefly luciferase NFκB reporter in A549 cells stimulated with TNFα. As to conditions: 1 h compound, then 0.5 ng/ml TNFα, further 15 hours, read-out: Transrepression (NFκB) ED50. An excerpt:
(§1) The glucocorticoid receptor (GR) can function in at least two distinct mechanisms, by upregulating gene expression through the direct binding of GR to specific sequences in gene promoters, and by downregulating gene expression that is being driven by other transcription factors (such as NFκB or AP-1) through their direct interaction with GR.
(§2) The first cell line contains the firefly luciferase reporter gene under the control of a synthetic promoter that specifically responds to activation of the transcription factor NFκB when stimulated with TNFα. The second cell line contains the renilla luciferase reporter gene under the control of a synthetic promotor that comprises 3 copies of the consensus glucocorticoid response element, and which responds to direct stimulation by glucocorticoids. Simultaneous measurement of transactivation and transrepression was conducted by mixing the two cell lines in a 1:1 ratio in 96 well plate (40,000 cells per well) and growing overnight at 37° C. Test compounds were dissolved in DMSO, and added to the cells at a final DMSO concentration of 0.7%. After incubation for 1 h 0.5 ng/ml TNFα (R&D Systems) was added and after a further 15 hours at 37° C., the levels of firefly and renilla luciferase were measured using the Packard Firelite kit following the manufacturers' directions. Dose response curves were constructed from which EC50 values were determined.

In assay [2] the target is T2, glucocorticoid receptor (Homo sapiens, UniProt P04150).
T2 construct: A549 cells stably transfected with a reporter gene containing the NF-κB responsive elements from the ELAM gene promoter; endogenous in cells; host or cells: A549 cells stably transfected with the reporter gene only
T2 sequence (P04150 1-777): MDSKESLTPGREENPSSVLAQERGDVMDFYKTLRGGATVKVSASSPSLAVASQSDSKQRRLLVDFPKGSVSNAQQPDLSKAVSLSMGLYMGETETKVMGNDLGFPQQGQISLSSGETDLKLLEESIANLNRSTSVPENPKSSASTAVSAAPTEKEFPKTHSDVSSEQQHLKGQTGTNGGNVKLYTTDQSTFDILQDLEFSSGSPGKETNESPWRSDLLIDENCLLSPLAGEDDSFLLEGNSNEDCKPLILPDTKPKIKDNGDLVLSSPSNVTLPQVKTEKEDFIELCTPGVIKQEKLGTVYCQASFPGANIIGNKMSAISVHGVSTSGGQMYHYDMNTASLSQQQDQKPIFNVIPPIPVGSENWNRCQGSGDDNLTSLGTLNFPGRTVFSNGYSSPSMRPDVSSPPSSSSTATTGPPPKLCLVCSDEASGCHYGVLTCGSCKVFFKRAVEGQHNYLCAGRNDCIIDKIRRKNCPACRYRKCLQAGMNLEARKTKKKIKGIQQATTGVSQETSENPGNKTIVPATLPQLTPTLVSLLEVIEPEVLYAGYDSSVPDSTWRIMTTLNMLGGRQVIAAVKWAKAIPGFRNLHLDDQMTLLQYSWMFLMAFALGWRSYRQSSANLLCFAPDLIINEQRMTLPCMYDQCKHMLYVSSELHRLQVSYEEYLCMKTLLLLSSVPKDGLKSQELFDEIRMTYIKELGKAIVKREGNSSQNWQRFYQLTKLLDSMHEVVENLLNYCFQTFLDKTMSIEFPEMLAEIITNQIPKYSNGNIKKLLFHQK
Put plainly: Functional in vitro assay of glucocorticoid agonist activity (A549 cells, NF-κB/ELAM promoter sPAP reporter, TNF stimulated). As to conditions: in vitro functional glucocorticoid agonist assays; relative to Example 1. As for the experimental part:
Pharmacological activity was assessed in a functional in vitro assay of glucocorticoid agonist activity which is generally predictive of anti-inflammatory or anti-allergic activity in vivo.
A549 cells stably transfected with a reporter gene containing the NF-κB responsive elements from the ELAM gene promoter coupled to sPAP (secreted alkaline phosphatase) were treated with test compounds at appropriate doses for 1 hour at 37° C. […] Dose response curves were constructed from which EC50 values were estimated.

Assay [3] concerns the target T1, glucocorticoid receptor (GR). As to the kind of experiment: Transactivation (GR): renilla luciferase reporter with glucocorticoid response elements in A549 cells. The following applies: GRE renilla luciferase reporter, 1 h compound, then 0.5 ng/ml TNFα, further 15 hours, read-out: Transactivation (GR) ED50.
From the text: as §1, §2

As to `C[C@@H]1C[C@H]2[C@@H]3C[C@H](F)C4=CC(=O)C=C[C@]4(C)[C@@]3(F)[C@@H](O)C[C@]2(C)[C@@]1(OC(=O)c1ccco1)C(=O)O` [Metabolite (X)], the results for the EC50 in assay [1] and in assay [3] were more than 1000 nM and more than 250 nM, respectively. The “fold less active than the parent compound” value in assay [2] is listed as more than 1000 fold.
